In patent publication US20120190752A1, “EXO-S-MECAMYLAMINE METHOD, USE, AND COMPOUND FOR TREATMENT” (Targacept Inc., priority 2009, published 2012):

Tested on: subjects with major depressive disorder (MDD) who were inadequate responders to citalopram
Test: HAMD Anxiety/Somatization Factor, Phase 2b add-on trial
Format: in vivo, human
Method: In more detail, a multi-center double-blind, randomized, placebo-controlled, parallel group, flexible dose titration study of TC-5214 as adjunctive therapy in subjects with major depressive disorder (MDD) who were inadequate responders to citalopram was conducted in centers in the US and India. The study consisted of a screening period, baseline/washout period, open-label phase, double-blind phase, and a follow-up visit. Subject participation in the study could continue for up to 16 weeks of treatment. Following a washout period of up to 28 days for other antidepressants, subjects with MDD and a MADRS total score >/=28 and a Clinical Global Impression-Severity (CGI-S) score >/=4 were enrolled on Day 1 into an open-label citalopram-only phase of the study. This phase lasted 8 weeks, with citalopram (CIT) dose increased from a once-daily dose of 20 mg (Day 1 through Week 4) to 40 mg (Week 4 through Week 8). A total of 579 subjects entered the open-label citalopram phase. At Week 8, subjects who tolerated 40 mg CIT, but whose MADRS score was reduced <50% from baseline and no lower than 17, and CGI-S≧4, were considered inadequate responders. These subjects (n=270) were randomized in a double-blind fashion to receive either placebo or TC-5214-23 as add-on therapy to continued CIT. The double-blind phase of the study also lasted 8 weeks (Week 8 to Week 16). Study drug, TC-5214-23 or placebo, was started at 2 mg daily (1 mg twice per day [BID] dosing), added on to continuing CIT (40 mg PO qd). After 2 weeks of treatment, the dose of TC-5214 could be increased to 4 mg (2 mg BID) or continued unchanged, with up-titration based upon good tolerability and inadequate therapeutic response. After a further 2 weeks, the dose of TC-5214 could be increased again to 8 mg (4 mg BID) if judged appropriate by the investigator, based upon good tolerability and inadequate therapeutic response. At any time during the double-blind phase of the study, placebo or TC-5214-23 could be reduced to the previous dose level following the emergence of unacceptable adverse events (AEs). […] At this follow-up, any signs or symptoms of relapse were evaluated. If a subject was prematurely discontinued from the study between Week 8 and Week 16 for any reason, the investigator was to make every effort to perform all evaluations as per protocol, assuming the subject had reached the end of the double-blind add-on treatment phase. These evaluations were to be made as soon as possible and within 2 weeks of discontinuation. […] There was no meaningful difference in results as a function of age, gender, site, or smoking status. With regard to efficacy endpoints, the following tables present efficacy used in the ITT (Intent-to-Treat) and PP (Per Protocol) populations unless otherwise specific. The primary inference was based upon Week 16 visit using the ITT population. Change from baseline was obtained by subtracting the baseline values from the individual on-treatment values. Change from Week 16 was obtained by subtracting the Week 16 values from the individual follow-up visit (Week 18/19) values. If either the baseline or Week 16 or on-treatment or follow-up value was missing, the change from baseline or Week 16 value was also set to missing. To account for missing data, the last observation carry forward (LOCF) method was used for the ITT and PP populations. Thus, the last available on-therapy observation for a subject, including the observation at premature discontinuation, was used to estimate subsequent missing data points. For efficacy, baseline data were collected at Week 8 in the double-blind augmentation phase electronic case report form pages. Analysis for the secondary endpoints were performed on both the ITT and PP populations. The secondary endpoints were as follows in Table 5. [table]

[1] = ITT, Double Blind Week 16 LOCF (change from Week 8)
[2] = ITT, Double Blind Week 18 LOCF (Follow-up), change from Week 16
[3] = PP, Double Blind Week 16 LOCF (change from Week 8)
[4] = PP, Double Blind Week 18 LOCF (Follow-up), change from Week 16

With `CNC1(C)C2CCC(C2)C1(C)C` (stereo in doubt) [TC-5214, (S)—N,2,3,3-tetramethylnorbornan-2-amine] the “HAMD anxiety/somatization subscale score change from baseline compared with placebo” value (ITT and PP populations, result in words) was “statistically significant decreases (improvements)”, the “HAMD anxiety/somatization Mean Difference between TC-5214 and Placebo” value [1] was 1.93 and the “HAMD anxiety/somatization subscale Adjusted Mean change” value [1] was −4.58. For the same compound, the “HAMD anxiety/somatization Mean Difference between TC-5214 and Placebo” value [2] was −0.00, the “HAMD anxiety/somatization subscale Adjusted Mean change” value [2] was −0.14 and the “HAMD anxiety/somatization Mean Difference between TC-5214 and Placebo” value [3] was 1.92. For the same compound, the “HAMD anxiety/somatization subscale Adjusted Mean change” value [3] was −4.93, the “HAMD anxiety/somatization Mean Difference between TC-5214 and Placebo” value [4] was 0.01 and the “HAMD anxiety/somatization subscale Adjusted Mean change” value [4] was −0.16.
